Data set [1] deals with tobacco cutworm. In words: Test 2: Tobacco Cutworm Larva Dipping Test, mortality after 24 hours. The format is in vivo. As to the method: (§1) To a mixture of 20 parts of the compound of the present invention and 20 parts of Sorpol SM-200 (registered tradename for the product supplied by Toho Chemical Industrial Co., Ltd.) was added 60 parts of xylol, and the mixture was suffciently blended. The obtained emulsifiable concentrate was diluted at a predetermined concentration with distilled water, and the obtained dilution was used.
A dilution having a chemical concentration of 100 or 20 ppm was prepared in the same manner as described in Test 1.
Second-instar and fifth-instar larvae of tobacco cutworm were dipped in the dilution for 5 seconds, and the excessive dilution was removed by a filter paper. Then, the larvae were set free in a plastic cup and an artificial diet was supplied thereto. The cup was allowed to stand still in a thermostat chamber maintained at 25° C. After 24 hours, the numbers of the killed and living larvae were counted and the mortality was calculated. The test was made on three cups and the result was expressed by an average value.

For another data set, the system named is diamond back moth. In words: Test 4: Effect on Diamond Back Moth. The format is in vivo. The following applies: Plutella. An outline of the steps:
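Compound formulated as an emulsifiable concentrate, diluted in water to 100 or 20 ppm and sprayed at 3 ml per cup onto cabbage leaves holding 10 third-instar larvae. Mortality counted after 24 hours; mean of three cups.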

Another data set deals with green peach aphid. Briefly: Test 5: Effect on Green Peach Aphid. The format is in vivo. The following applies: Myzus persicae, read-out: Insecticidal Activity. The method, then: as §1
Seedlings (having 3 to 4 leaves) of an eggplant grown on a pot were inoculated with green peach aphids and the insects were allowed to grow. The number of the insects was counted. A chemical dilution having a concentration of 100 ppm, prepared in the same manner as described in Test 1, was applied with a spray gun at a rate of 10 ml per pot. Then, the pot was placed in a glass green house. After 24 hours, the number of living insects was counted and the mortality was calculated.
The test was made on three pots, and the average value was calculated. In Table 6, mark "A" indicates a mortality higher than 95%, mark "B" indicates a mortality of 80 to 95%, mark "C" indicates a mortality of 50 to 80%, and mark "D" indicates a mortality lower than 50%.

A further data set relates to German cockroach. In words: Test 7: Effect on German Cockroach. It is filed as in vivo. The conditions noted are these: Blattella germanica. As to the method: as §1
The bottom face of a high Petri dish having a diameter of 9 cm and a height of 9 cm was treated with 50 or 10 mg/m^2 of a test compound and the dish was air-dried. In order to prevent the adults from escaping from the dish, the inner wall of the dish was treated with butter. Then, 10 male adults of German cockroach were set free in each dish, and the dish was placed in a thermostat chamber maintained at 25° C. After 24 hours, the number of agonized and killed adults was counted. The test was made on two dishes and the average value was calculated.

For data set [2], the system named is tobacco cutworm. In words: Test 1: Effect on Tobacco Cutworm (leaf immersion), mortality after 24 hours. It is filed as in vivo. The following applies: second-instar larvae, 25° C. An outline of the steps:
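Sweet-potato leaves dipped 10 s in emulsifiable concentrate diluted to 100 or 20 ppm, air-dried, then exposed to second-instar larvae at 25 °C. Mortality counted after 24 h, averaged over three cups.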

For data set [3], the system named is resistant green rice leafhopper (collected at Nakagawara). In words: Test 3: Effect on Resistant Green Rice Leafhopper (collected at Nakagawara). It is filed as in vivo, Nephotettix cincticeps Uhler (Green rice leafhopper). The following applies: Nephotettix cincticeps, 24 h, read-out: Mortality (%), Green Rice Leafhopper Collected at Nakagawara. An outline of the steps: (§2)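 Emulsifiable concentrate diluted to 100 or 20 ppm was sprayed, 3 ml per pot, onto hydroponic rice seedlings at 2–3 leaves. After air-drying, 10 female adults of the Nakagawara (resistant) or Chigasaki (sensitive) strain were released per caged pot. Mortality was counted at 24 h and averaged over three pots.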

Data set [4] has as its system sensitive green rice leafhopper (collected at Chigasaki). Briefly: whole plant or invertebrate. The format is in vivo. The following applies: Nephotettix cincticeps, sensitive female adults, 24 hours, read-out: Mortality (%), Green Rice Leafhopper Collected at Chigasaki. An outline of the steps:
as §2

Data set [5] can be described thus: Test 9: Toxicity Test (acute oral toxicity, mice). The following applies: mouse, in vivo, po. The method, then: A predetermined amount of a solution or suspension of a test compound in corn oil was orally administered to male mice having a body weight of 19 to 23 g (0.2 ml per 10 g of the body weight). After 7 days, the number of killed mice was counted and the influences on the mice were examined.

The mark [6] stands for this setting: 24 h, read-out: Motality (%), Fifth-Instar Larvae.
[7] abbreviates: 24 h, read-out: Motality (%), Second-Instar Larvae.
Setting [8] is: 100 ppm, mortality class, 24 hours.
[9] abbreviates: 20 ppm, third-instar larvae, 24 hours, read-out: Mortality (%).
Where [10] appears, read: 100 ppm, third-instar larvae, 24 hours, read-out: Mortality (%).
The mark [11] stands for this setting: 10 mg/m^2, male adults, agonized and killed after 24 hours, read-out: Mortality (%).
[12] abbreviates: 50 mg/m^2, male adults, agonized and killed after 24 hours, read-out: Mortality (%).

Like-named read-outs stand apart in the source and are kept apart here.

What is called LD50 is the dose at which mortality reaches 50%.

In the case of `COP(=O)(OC)OC=C(Cl)Cl` [(g), O,O-dimethyl-O-(2,2-dichlorovinyl)phosphate, reference compound], the mortality at 20 ppm came to 10% in the data set with tobacco cutworm [1] (setting [6]), 20% with tobacco cutworm [1] (setting [7]) and 0% in the data set on diamond back moth (24 h). The mortality at 100 ppm was 30% with tobacco cutworm [1] (setting [6]), 50% in the data set with tobacco cutworm [1] (setting [7]), 60% with diamond back moth (24 h) and under 50% in the data set on green peach aphid (setting [8]). For the same compound, the mortality at 10 mg/m2 with German cockroach (24 h) is 40%. This compound registered a mortality at 50 mg/m2 with German cockroach (24 h) of 100%.

Take `COP(=O)(NC(C)=O)SC` (stereo not shown) [Comparative Compound (h), O,S-dimethyl N-acetylphosphoroamidothiolate, reference compound]: the mortality at 100 ppm with green peach aphid (24 h) was in the range of 80 to 95%.

With `Cc1ccc(C(C)(C)COCc2cccc(Oc3ccc(F)cc3)c2)cc1` [Compound 3, 3-(4-Fluorophenoxy)benzyl 2-(4-methylphenyl)-2-methylpropyl ether], the mortality at 20 ppm in the data set with tobacco cutworm [2] worked out at 83%; in the data set on tobacco cutworm [1] (20 ppm, fifth-instar larvae, 24 hours, read-out: Motality (%), Fifth-Instar Larvae), 60%; with tobacco cutworm [1] (20 ppm, second-instar larvae, 24 hours, read-out: Motality (%), Second-Instar Larvae), 70%; in data set [3] it was 100%; in data set [4] it was 100%. Further, the mortality at 100 ppm is 100% with tobacco cutworm [2]; 70% in the data set with tobacco cutworm [1] (100 ppm, fifth-instar larvae, 24 hours, read-out: Motality (%), Fifth-Instar Larvae); 90% in the data set on tobacco cutworm [1] (100 ppm, second-instar larvae, 24 hours, read-out: Motality (%), Second-Instar Larvae); 100% in data set [3]; 100% in data set [4]; over 95% with green peach aphid (setting [8]). The LD50 at 168 h in data set [5] was over 500 mg/kg.

For the compound `CC(C)(CSCc1cccc(Oc2ccc(F)cc2)c1)c1ccc(Cl)cc1` [Compound 9], the mortality at 20 ppm in the data set with tobacco cutworm [2] was found to be 90%; in data set [3], 90%; in data set [4], 70%; in the data set on diamond back moth (setting [9]), 95%. The mortality at 100 ppm with tobacco cutworm [2] was 100%; in data set [3], 100%; in data set [4] it was 100%; in the data set on diamond back moth (setting [10]) it was 100%; in the data set on green peach aphid (setting [8]) it was over 95%. Further, the mortality at 10 mg/m2 in the data set on German cockroach (setting [11]) turned out to be 100%. For the same compound, the mortality at 50 mg/m2 in the data set with German cockroach (setting [12]) was determined as 100%. This compound also displayed an LD50 at 168 h in data set [5] of over 500 mg/kg.

On to `CC(C)(COCc1cccc(Oc2ccccc2F)c1)c1ccc(Cl)cc1` [Compound 14], for which the mortality at 20 ppm (with tobacco cutworm [2]; in data set [3]; in data set [4]; in the data set with diamond back moth (setting [9])) was 100% throughout. Moreover, the mortality at 100 ppm is 100% in the data set on tobacco cutworm [2]; 100% in data set [3]; 100% in data set [4]; 100% in the data set on diamond back moth (setting [10]); over 95% with green peach aphid (setting [8]). In addition, the mortality at 10 mg/m2 in the data set on German cockroach (setting [11]) turned out to be 100%. Besides, in the data set with German cockroach (setting [12]), the mortality at 50 mg/m2 amounted to 100%. In addition, the LD50 at 168 h in data set [5] is over 500 mg/kg.

Regarding `CC(C)(COCc1cccc(Oc2ccccc2)c1)c1cccc(C(F)(F)F)c1` [Compound 39, 3-Phenoxybenzyl 2-(3-trifluoromethylphenyl)-2-methylpropyl ether], the mortality at 20 ppm came to 90% with tobacco cutworm [2], 100% in data set [3] and 100% in data set [4]. Moreover, the mortality at 100 ppm in the data set with tobacco cutworm [2] was 100%; in data set [3], 100%; in data set [4], 100%; in the data set on green peach aphid (setting [8]), over 95%. In the data set on German cockroach (setting [11]), the mortality at 10 mg/m2 worked out at 90%. Further, the mortality at 50 mg/m2 in the data set with German cockroach (setting [12]) was determined as 100%. Besides, the LD50 at 168 h in data set [5] was over 500 mg/kg.

As for `CCOc1ccc(C(C)(C)COCc2cccc(Oc3ccccc3)c2)cc1Cl` [Compound 78, 3-Phenoxybenzyl 2-(3-chloro-4-ethoxyphenyl)-2-methylpropyl ether], the mortality at 20 ppm (in the data set on tobacco cutworm [2]; in data set [3]; in data set [4]; in the data set on diamond back moth (setting [9])) was 100% throughout. The mortality at 100 ppm in the data set on tobacco cutworm [2] was 100%; in data set [3], 100%; in data set [4] it was 100%; in the data set with diamond back moth (setting [10]), 100%; with green peach aphid (setting [8]) it was over 95%. This compound showed an LD50 at 168 h in data set [5] of over 500 mg/kg.

With `COC(C)c1ccc(C(C)(C)COCc2cccc(Oc3ccccc3)c2)cc1` (stereo not shown) [Compound 86, 3-Phenoxybenzyl 2[4-(1-methoxyethyl)phenyl]-2-methylpropyl ether], in the data set with green peach aphid (setting [8]), the mortality at 100 ppm lay in the range of 80 to 95%. In data set [5], this compound gave an LD50 at 168 h of over 500 mg/kg.

`CCOc1ccc(C(C)(C)COCc2cccc(Oc3ccccc3)c2)cc1OCC` [Compound 93, 3-Phenoxybenzyl 2-(3,4-diethoxyphenyl)-2-methylpropyl ether]: the mortality at 20 ppm in the data set on tobacco cutworm [2] was determined as 100%; in data set [3], 100%; in data set [4], 75%. Also, the mortality at 100 ppm in the data set on tobacco cutworm [2] is 100%; in data set [3] it was 100%; in data set [4] it was 100%; in the data set with green peach aphid (setting [8]), over 95%. Also, the mortality at 10 mg/m2 in the data set with German cockroach (setting [11]) was 100%. Further, the mortality at 50 mg/m2 in the data set with German cockroach (setting [12]) amounted to 100%. Also, the LD50 at 168 h in data set [5] is over 500 mg/kg.

With `CCOc1ccc(C(C)(C)CSCc2cccc(Oc3ccccc3)c2)cc1` [Compound 95], the mortality at 20 ppm (in the data set with tobacco cutworm [2]; in data set [3]; in data set [4]) was 100% each time. Moreover, the mortality at 100 ppm is 100% with tobacco cutworm [2], 100% in data set [3], 100% in data set [4] and over 95% in the data set with green peach aphid (setting [8]). Also, in data set [5], the LD50 at 168 h is over 500 mg/kg.

For the compound `C#Cc1ccc(C(C)(C)COCc2cccc(Oc3ccccc3)c2)cc1` [Compound 96, 3-Phenoxybenzyl 2-(4-ethynylphenyl)-2-methylpropyl ether], the mortality at 20 ppm in data set [3] was determined as 90%; in data set [4], 60%. For the same compound, the figures for the mortality at 100 ppm (in data set [3]; in data set [4]; in the data set with green peach aphid (setting [8])) were 100%, 100% and 80 to 95%, respectively. In data set [5], this compound returned an LD50 at 168 h of over 500 mg/kg.

With `CCOc1ccc(C(C)(CC)COCc2cccc(Oc3ccccc3)c2)cc1` (stereo not shown) [Compound 103, 3-Phenoxybenzyl 2-(4-ethoxyphenyl)-2-ethylpropyl ether], the mortality at 20 ppm (with tobacco cutworm [2]; in data set [3]; in data set [4]) was 100% in each case. Also, the mortality at 100 ppm in the data set on tobacco cutworm [2] was 100%; in data set [3] it was 100%; in data set [4], 100%; with green peach aphid (setting [8]), over 95%. The LD50 at 168 h in data set [5] was over 500 mg/kg.

The record behind these values is patent publication US4570005A, “Process for the preparation of 2-arylpropyl ether or thioether derivatives” (priority 1980, dated 1986).
